From ChEMBL document CHEMBL1140045, “Crystal structures of rat vitamin D receptor bound to adamantyl vitamin D analogs: structural basis for vitamin D receptor antagonism and partial agonism” (J Med Chem, 2008)
Activity calls are given as the source filed them. No cut-off for these calls is given here.

What was measured:
[1] = target: T1, Vitamin D3 receptor (Homo sapiens) (UniProt P11473); assay: Binding affinity to VDR relative to 1,25-Dihydroxyvitamin D3
T1 sequence (whole entry): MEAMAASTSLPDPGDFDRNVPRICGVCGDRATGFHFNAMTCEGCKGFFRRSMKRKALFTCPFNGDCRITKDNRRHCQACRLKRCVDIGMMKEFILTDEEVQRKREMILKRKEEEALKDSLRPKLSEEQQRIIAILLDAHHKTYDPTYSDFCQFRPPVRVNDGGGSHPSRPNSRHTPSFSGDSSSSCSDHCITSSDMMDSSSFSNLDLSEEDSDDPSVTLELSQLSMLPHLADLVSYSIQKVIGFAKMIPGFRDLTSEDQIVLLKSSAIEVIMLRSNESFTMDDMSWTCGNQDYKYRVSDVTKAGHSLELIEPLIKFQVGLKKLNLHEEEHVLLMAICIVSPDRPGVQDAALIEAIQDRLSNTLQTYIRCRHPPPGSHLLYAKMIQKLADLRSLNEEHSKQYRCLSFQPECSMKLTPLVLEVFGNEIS

[2] = target: T1, Vitamin D3 receptor (Homo sapiens); assay: Agonist activity at VDR assessed as receptor transactivation by transient transcription assay relative to 1,25-Dihydroxyvitamin D3; assay type: functional
Vitamin D3 receptor [3] = target: T2, Vitamin D3 receptor (Homo sapiens, UniProt P11473); assay: Antagonist activity at VDR expressed in COS7 cells assessed as inhibition of 1,25-Dihydroxyvitamin D3-induced response by transient transcription assay; assay type: functional, cell-based, COS-7
T2 sequence (P11473 whole entry): T1 sequence (whole entry)

Vitamin D3 receptor [4] = target: T2, Vitamin D3 receptor; assay: Agonist activity at VDR assessed as receptor transactivation by transient transcription assay; assay type: functional

Activity [1]	Activity [2] [%]	IC50 (Vitamin D3 receptor [3]) [nM]	EC50 (Vitamin D3 receptor [4]) [nM]	SMILES
75%	15	3	1	C=C1[C@H](O)CC(=C/C=C2\CCC[C@]3(C)[C@@H]([C@@H](C)/C=C/C[C@@H](O)C45CC6CC(CC(C6)C4)C5)CC[C@@H]23)C[C@H]1O
20%	74		0.02	C=C1[C@H](O)CC(=C/C=C2\CCC[C@]3(C)[C@@H]([C@H](C)/C=C/[C@@H](O)C45CC6CC(CC(C6)C4)C5)CC[C@@H]23)C[C@H]1O
Active	10		24	C=C1[C@H](O)CC(=C/C=C2\CCC[C@]3(C)[C@@H]([C@@H](C)/C=C/C[C@@H](O)CC45CC6CC(CC(C6)C4)C5)CC[C@@H]23)C[C@H]1O
